Source: patent US20240066065A1, “PLATELET DERIVATIVES FOR TREATING COAGULOPATHY” (Cellphire, Inc., priority 2019, published 2024)

Assays:
whole blood = assay: T-TAS thrombus formation under flow, AR chip (collagen+TF), rivaroxaban-anticoagulated whole blood; assay type: cell-based, human
Text: (§1) In the Total Thrombus-formation Analysis System (T-TAS®, FUJIMORI KOGYO CO., LTD), the sample is forced through collagen-coated microchannels using mineral oil. Changes in pressure are used to assess thrombus formation. The Occlusion Start Time is time it takes to reach 10 kPa, and the Occlusion Time=time it takes to each Δ80 kPa using an AR chip (e.g., Zacros Item No, TC0101). According to the manufacturer, an AR chip can be used for analyzing the formation of a mixed white thrombus consisting chiefly of fibrin and activated platelets. It has a flow path (300 μm wide by 50 μm high) coated with collagen and tissue factors and can be used to analyze the clotting function and platelet function. In comparison, a PL chip can be used for analyzing the formation of a platelet thrombus consisting chiefly of activated platelets. A PL chip has a flow path coated with collagen only and can be used to analyze the platelet function.
Rivaroxaban (sometimes herein called Riv) dose-response in whole blood was measured using T-TAS®. An AR chip (Collagen+TF) was used. T-TAS® assays were performed according to Example 3. The donor platelets were used at 307k/μL.
Thrombosomes were prepared consistent with the procedures described in U.S. Pat. No. 8,486,617 (such as, e.g., Examples 1-5) and U.S. Pat. No. 8,097,403 (such as, e.g., Examples 1-3), and rehydrated by addition of sterile water. T-TAS® assays were run according to Example 3 using 3 μM rivaroxaban and different concentrations of thrombosomes (FIG. 10A, Table 8). The ‘No Riv’ vertical line indicates the approximate occlusion time of a sample with no added rivaroxaban.

Platelet rich plasma = assay: T-TAS flow system (collagen and tissue factor coated channel), rivaroxaban-treated platelet rich plasma; assay type: cell-based, human; details: 3 μM rivaroxaban (6.04 without)
Text: as §1
In a similar experiment, T-TAS® assays were run according to Example 3 with no rivaroxaban, 3 μM rivoroxaban, and 3 μM rivoroxaban and 300×10^3/μL thrombosomes. Platelet rich plasma that was treated with 3 μM rivaroxaban extended occlusion times from 6.04 to 26.01 minutes on the T-TAS® flow system (collagen and tissue factor coated channel).

heparinized plasma = assay: Thrombin generation assay in heparinized George King Plasma; assay type: biochemical, human; details: 2 U/mL heparin, 20 μg/mL protamine sulfate, thrombosomes 5K, 50K, 150K per μL
Procedure: Thrombosomes were prepared consistent with the procedures described in U.S. Pat. No. 8,486,617 (such as, e.g., Examples 1-5) and U.S. Pat. No.8,097,403 (such as, e.g., Examples 1-3), and rehydrated by addition of sterile water. aPTT and thrombin generation assays were performed as described in Example 3. […] The dashed line at approximately 70 seconds denotes the limit of abnormal aPTT and the second dashed line is the maximum time measured by the instrument (120 sec). Thrombin generation in heparin treated samples was also measured. […] The dashed line in FIGS. 23B and 23C denotes a typical thrombin peak value seen in this assay for control plasma.
The dashed line at approximately 70 seconds denotes the limit of abnormal aPTT and the second dashed line is the maximum time measured by the instrument (120 sec). Thrombin generation in heparin treated samples was also measured, with and without protamine sulfate. […] The dashed line in FIGS. 24B and 24C enotes a typical thrombin peak value seen in this assay for control plasma.

dabigatran treated PRP = details: dabigatran 100 ng/mL (18.89 untreated)
Procedure: • (1) Open CAT software; set up instrument; and prepare PRP reagent (including Tissue Factor and some phospholipids), calibrator, and fluoro-buffer according to manufacturer guidelines. • (2) Thaw warfarin or control plasma in 37° C. water bath for 5 minutes. • (3) Rehydrate thrombosomes with cell culture grade water for 10 minutes then dilute with Control Buffer to double target concentration. • (4) For each sample, combine 1:1 volumes of Control Buffer with or without thrombosomes and plasma. • (5) Using a multichannel pipette, add 20 μL of PRP reagent to each well. • (6) Add 80 μL of sample per well.

In the case of O=C(NC[C@H]1CN(c2ccc(N3CCOCC3=O)cc2)C(=O)O1)c1ccc(Cl)s1 [rivaroxaban], the AUC (whole blood; 1 uM rivaroxaban) is reported as 1686 kPa*min, the “Occ Spd” value (whole blood; 1 uM rivaroxaban) is reported as 20.9 kPa/min and the AUC (whole blood; 3 uM rivaroxaban) is reported as 423 kPa*min. For the same molecule, the “Occ Spd” value (whole blood; 3 uM rivaroxaban) was 28.2 kPa/min, the AUC (whole blood; 9 uM rivaroxaban) was 13.6 kPa*min and the “occlusion and thrombus formation” value (whole blood; 9 μM rivaroxaban (a pharmacological dose)) was “inhibits occlusion but not all thrombus formation”. It also gave an occlusion time (Platelet rich plasma) of 26.01 min.

With Protamine Sulfate the “thrombosome-mediated thrombin generation after heparin reversal” value (heparinized plasma) was “Restores Thrombosome-Mediated Thrombin Generation”.

In the case of dabigatran, the Time to peak (dabigatran treated PRP) is reported as 34.67 min.
